Each block holds one molecule with its values, some of them ahead of it. The source made the active and inactive calls. No cut-off for these calls is given here.
Key:
[1] = biological target: T1, Lysine-specific histone demethylase 1A (Homo sapiens, UniProt O60341); experiment: Inhibition of recombinant LSD1 ( unknown origin) expressed in Escherichia coli BL21 (DE3) cells using H3K4me2 peptide as substrate incubated for 30 mins in presence of FAD by fluorescence microplate reader analysis
[2] = biological target: T1, Lysine-specific histone demethylase 1A; experiment: Binding affinity to LSD1 in human BGC-823 cells assessed as thermal stability at 2 uM measured at 40 to 55 degreeC by cellular thermal shift assay; assay type: cell-based
[3] = biological target: T1, Lysine-specific histone demethylase 1A; experiment: Inhibition of LSD1 in human BGC-823 cells assessed as induction of H3K4me1 accumulation at 0.5 to 2 uM incubated for 5 days by Western blot analysis; assay type: cell-based; details: dose 0.5-2 µM, time 5.0 day
[4] = biological target: T1, Lysine-specific histone demethylase 1A; experiment: Inhibition of LSD1 in human BGC-823 cells assessed as induction of H3K4me2 accumulation at 0.5 to 2 uM incubated for 5 days by Western blot analysis; assay type: cell-based; details: dose 0.5-2 µM, time 5.0 day
BGC-823 [5] = experiment: Inhibition of stemness in human BGC-823 cells assessed as inhibition of OCT4 expression at 0.5 to 2 uM by Western blot analysis; assay type: functional, cell-based; details: dose 0.5-2 µM
BGC-823 [6] = experiment: Inhibition of stemness in human BGC-823 cells assessed as inhibition of SOX2 expression at 0.5 to 2 uM by Western blot analysis; assay type: functional, cell-based; details: dose 0.5-2 µM
BGC-823 [7] = experiment: Inhibition of stemness in human BGC-823 cells assessed as inhibition of Nanog expression at 0.5 to 2 uM by Western blot analysis; assay type: functional, cell-based; details: dose 0.5-2 µM
BGC-823 [8] = experiment: Inhibition of stemness in human BGC-823 cells assessed as inhibition of CD44 expression at 0.5 to 2 uM by Western blot analysis; assay type: functional, cell-based; details: dose 0.5-2 µM
BGC-823 [9] = experiment: Inhibition of cell migration in human BGC-823 cells at 0.5 to 2 uM measured upto 48 hrs by fluorescence microscope based wound healing assay; assay type: functional; details: dose 0.5-2 µM
BGC-823 [10] = experiment: Downregulation of PD-L1 level in human BGC-823 cells incubated for 5 days by Western blot analysis; assay type: functional, cell-based; details: dose 0.5-2 µM, time 5.0 day
MFC [11] = experiment: Downregulation of PD-L1 level in MFC cells incubated for 5 days by Western blot analysis; assay type: functional, cell-based; details: Mus musculus, dose 0.5-2 µM, time 5.0 day
BGC-823 [12] = experiment: Downregulation of PD-L1 mRNA level in human BGC-823 cells at 0.5 to 2 uM incubated for 5 days by qRT-PCR analysis; assay type: functional, cell-based; details: dose 0.5-2 µM, time 5.0 day
MFC [13] = experiment: Downregulation of PD-L1 mRNA level in MFC cells at 0.5 to 2 uM incubated for 5 days by qRT-PCR analysis; assay type: functional, cell-based; details: Mus musculus, dose 0.5-2 µM, time 5.0 day
[14] = biological target: Programmed cell death protein 1/Programmed cell death 1 ligand 1 (Homo sapiens) (UniProt Q15116+Q9NZQ7); experiment: Inhibition of Fc-tagged recombinant human PD-1 binding to PD-L1 in human BGC-823 cells incubated for 5 days by DAPI staining based confocal microscopic analysis; assay type: cell-based; details: dose 0.5-2 µM, time 5.0 day
BGC-823 [15] = experiment: Cytotoxicity against human BGC-823 cells co-cultured with T cells assessed as reduction in cell viability pretreated for 5 days followed by co-incubation with T cells for 4 days by CCK8 assay; assay type: functional, cell-based; details: dose 0.5-2 µM, time 5.0 day
BGC-823 [16] = experiment: Cytotoxicity against human BGC-823 cells co-cultured with T cells assessed as increase in 4-1BB mRNA level at 1 uM by qRT-PCR analysis; assay type: functional, cell-based
BGC-823 [17] = experiment: Cytotoxicity against human BGC-823 cells co-cultured with T cells assessed as increase in CCR7 mRNA level at 1 uM by qRT-PCR analysis; assay type: functional, cell-based
BGC-823 [18] = experiment: Cytotoxicity against human BGC-823 cells co-cultured with T cells assessed as increase in CCR10 mRNA level at 1 uM by qRT-PCR analysis; assay type: functional, cell-based
BGC-823 [19] = experiment: Cytotoxicity against human BGC-823 cells co-cultured with T cells assessed as increase in IFN-gamma mRNA level at 1 uM by qRT-PCR analysis; assay type: functional, cell-based
BGC-823 [20] = experiment: Cytotoxicity against human BGC-823 cells co-cultured with T cells assessed as increase in IL-2 mRNA level at 1 uM by qRT-PCR analysis; assay type: functional, cell-based
BGC-823 [21] = experiment: Cytotoxicity against human BGC-823 cells co-cultured with T cells assessed as increase in TNF-alpha mRNA level at 1 uM by qRT-PCR analysis; assay type: functional, cell-based
[22] = Toxicity in 615 mouse implanted with MFC cells assessed as change in body weight upto 50 mg/kg, IG measured after 14 days; assay type: organism-based; details: in vivo, po, 336 h, time 14 day
[23] = Toxicity in 615 mouse implanted with MFC cells assessed as liver damage upto 50 mg/kg, IG measured after 14 days; assay type: organism-based; details: in vivo, po, 336 h, time 14 day
[24] = Toxicity in 615 mouse implanted with MFC cells assessed as kidney damage upto 50 mg/kg, IG measured after 14 days; assay type: organism-based; details: in vivo, po, 336 h, time 14 day
MFC [25] = experiment: Antitumor activity against MFC cells implanted in 615 mouse assessed as inhibition of tumor growth administered intragastrically for 14 days; assay type: functional, cell-based; details: dose 15-50 mg/kg, route ig, time 14.0 day
MFC [26] = experiment: Antitumor activity against MFC cells implanted in 615 mouse assessed as reduction in tumor size at 15 to 50 mg/kg, IG administered for 14 days; assay type: functional, organism-based; details: dose 15-50 mg/kg, time 14.0 day
MFC [27] = experiment: Antiproliferative activity against MFC cells assessed as inhibition of cell proliferation at 2 uM incubated for 5 days by CCK8 assay; assay type: functional; details: Mus musculus, 120 h, time 5 day
MFC [28] = experiment: Antitumor activity against MFC cells implanted in 615 mouse assessed as decrease in PD-L1 expression in tumor administered intragastrically for 14 days by Western blot analysis; assay type: functional, cell-based; details: dose 15-50 mg/kg, route ig, time 14.0 day
MFC [29] = experiment: Antitumor activity against MFC cells implanted in 615 mouse assessed as increase in IFN-gamma mRNA level at 15 to 50 mg/kg, IG administered for 14 days by qRT-PCR analysis; assay type: functional, organism-based; details: dose 15-50 mg/kg, time 14.0 day
MFC [30] = experiment: Antitumor activity against MFC cells implanted in 615 mouse assessed as increase in TNF-alpha mRNA level at 15 to 50 mg/kg, IG administered for 14 days by qRT-PCR analysis; assay type: functional, organism-based; details: dose 15-50 mg/kg, time 14.0 day
MFC [31] = experiment: Antitumor activity against MFC cells implanted in 615 mouse assessed as increase in IL-2 mRNA level at 15 to 50 mg/kg, IG administered for 14 days by qRT-PCR analysis; assay type: functional, organism-based; details: dose 15-50 mg/kg, time 14.0 day

SMILES: CN(C)Cc1ccc(Nc2c3ccccc3nc3ccccc23)cc1
IC50 [1]: > 10 µM

SMILES: CN(C)C(=O)c1ccc(Nc2c3ccccc3nc3ccccc23)cc1
IC50 [1]: > 10 µM

Now from value to molecule, other results behind:

IC50 [1]: > 10 µM
SMILES: Cc1ccc2c(Nc3ccc(N(C)C)cc3)c3ccc([N+](=O)[O-])cc3nc2c1C

IC50 [1]: > 10 µM
SMILES: CN(C)c1ccc(Nc2c3ccccc3nc3c(N(C)C)cccc23)cc1

IC50 [1]: 0.013 µM
Activity [2]: Active
inhibition [3]: Active
inhibition [4]: Active
SMILES: Cc1ccc2nc3c(C)c(C)ccc3c(Nc3ccc(N(C)C)cc3)c2c1
inhibition (BGC-823 [5]): Active
inhibition (BGC-823 [6]): Active
inhibition (BGC-823 [7]): Active
inhibition (BGC-823 [8]): Active
inhibition (BGC-823 [9]): Active
Activity (BGC-823 [10]): Dose-Dependent Effect
Activity (MFC [11]): Dose-Dependent Effect
Activity (BGC-823 [12]): Active
Activity (MFC [13]): Active
inhibition [14]: Dose-Dependent Effect
Activity (BGC-823 [15]): Dose-Dependent Effect
Activity (BGC-823 [16]): Active
Activity (BGC-823 [17]): Active
Activity (BGC-823 [18]): Active
Activity (BGC-823 [19]): Active
Activity (BGC-823 [20]): Active
Activity (BGC-823 [21]): Active
Activity [22]: Non-Toxic
Activity [23]: Non-Toxic
Activity [24]: Non-Toxic
Activity (MFC [25]): Dose-Dependent Effect
Activity (MFC [26]): Active
inhibition at 2 µM (MFC [27]): > 10%
Activity (MFC [28]): Dose-Dependent Effect
Activity (MFC [29]): Active
Activity (MFC [30]): Active
Activity (MFC [31]): Active

Source: ChEMBL document CHEMBL5625213, “Novel acridine-based LSD1 inhibitors enhance immune response in gastric cancer” (Eur J Med Chem, 2023)
